Data reported in patent US20220151994A1, “THERAPEUTIC METHODS AND COMPOSITIONS FOR TREATING LYMPHOMA USING 6,8-BISBENZYLTHIO-OCTANOIC ACID” (Rafael Pharmaceuticals, Inc., priority 2019, published 2022).

Assays:
[1] = Compatibility studies with IV infusion sets, IV bags and syringes (Study COM-003); type: physicochemical
Description: Therefore, DEHP-containing IV infusion sets, IV bags or syringes should not be used in mixing or administration of CPI-613. […] Therefore, these 4 types of IV infusion sets, and IV infusion sets that are made with the same materials, can be used to administer CPI-613. […] Therefore, any of these types of syringes, and syringes that are made with the same materials, can be used to administer CPI-613. Also, glass syringes can also be used, since glass (such as glass containers) is compatible with CPI-613 drug product. • Norm-Ject, polyethlyene barrel, polyethylene plunger, latex free (Henke Sass Wolf GMBH) syringes • Becton Dickinson syringes • Terumo syringes • Monoject syringes • Glass syringes

[2] = Animal studies of IV administration of CPI-613; type: in vivo
Procedure: CPI-613 must be administered IV, via an IV catheter that is free flowing and free of air in the dead space of the IV catheter, to minimize vascular irritation, inflammation and acute toxicity of CPI-613. […] To avoid local reactions at and around the site of administration, CPI-613 must be administered via a central venous catheter.
CPI-613 must not be administered as a bolus, but by infusion, at a rate of ˜0.5 mL/min, via a central venous catheter with D5W running at a rate of about 125-150 mL/hr. This is to minimize potential acute toxicity of CPI-613, according to animal studies.

[3] = Toxicities/side effects seen in prior CPI-613 studies treating other types of cancers; type: in vivo
Description: Given the limited data for treating Burkitt lymphoma and other hematological malignancies with CPI-613, the following are the most frequent toxicities seen in prior CPI-613 studies treating other types of cancers.

[4] = pH and stability of CPI-613 drug product diluted with D5W; type: physicochemical; settings: solution in 1M aqueous triethanolamine diluted from 50 mg/mL to as low as 4 mg/mL with D5W
Procedure: A solution of 6,8-bis-benzylthio-octanoic acid in 1M aqueous triethanolamine is diluted from 50 mg/mL to as low as 4 mg/mL with sterile 5% dextrose for injection (D5W) prior to administration. After dilution with D5W, the solution is clear and has a pH of 8.4-8.8. The D5W solution of 6,8-bis-benzylthio-octanoic acid is administered as an IV infusion over two hours via a central venous catheter on days 1-5 of every cycle.
CPI-613 must be diluted from 50 mg/mL to 12.5 mg/mL with 5% Dextrose Water (D5W) (i.e., 1 portion of CPI-613 diluted with 3 portions of D5W) prior to administration. The diluted drug product should be visually inspected for clarity. […] After dilution with sterile D5W, the solution is clear and has a pH of 8.4-8.8.

[5] = Photosensitivity of CPI-613; type: physicochemical
Procedure: Each vial contains 10 mL of CPI-613 at a concentration 50 mg/mL, equivalent to 500 mg of CPI-613. The drug product of CPI-613 is a clear and colorless solution that is free of any particulate matter. CPI-613 should be stored under refrigeration, at 2°-8° C. (36°-46° F.), except when being prepared for administration.

[6] = Maximum tolerated dose of CPI-613 as a single agent; type: in vivo; settings: CPI-613 given as a single agent
Procedure: In the event that the DLT in ≥2 patients is not observed once the 3,000 mg/m^2 cohort has been tested, dose escalation is also considered to be complete since 3,000 mg/m^2 is the MTD of CPI-613 when given as a single agent. Three additional patients will be enrolled at the MTD for a total of six expected patients at this dose level.

In the case of `O=C(O)CCCCC(CCSCc1ccccc1)SCc1ccccc1` (stereo not drawn) [CPI-613, 6,8-bis-benzylthio-octanoic acid], the “Compatibility with IV infusion sets” value ([1]; PVC, latex and polyethylene sets) is reported as “compatible with 4 commonly used IV infusion sets”, the “Leaching of DEHP from IV infusion sets and IV bags” value ([1]; Study COM-003) is reported as “can cause leaching of Diethylhexyl Phthalate (DEHP)” and the “Effect of accidental co-administration of extra air in the dead space of IV catheters” value ([2]; animal studies, IV administration) is reported as “potential to induce acute toxicity”. The “Effect of accidental leakage into the perivascular space during IV administration” value ([2]; in vivo, iv) was “can induce significant local inflammation”, the Common side effects [3] was “nausea, leukocytopenia, neutrophils (neutropenia), fatigue, and elevated alkaline phosphatase (ALP)” and the “Rare but serious side effects” value [3] was “infections, disseminated intravascular coagulation, elevated troponin, and renal failure”. The “pH of solution after dilution with D5W” value [4] was 8.4-8.8, the Photosensitivity [5] was “slightly photosensitive” and the MTD [6] was 3,000 mg/m^2.
